The values below are quoted from earlier work in patent publication US20100151008A1, “Preparations and Methods for Textile and or Fiber Surface Finishing, Surface Finished Articles Prepared Thereby, and Uses Therefor” (Cognis IP Management GmbH, priority 2003, published 2010).

Consider `CC(C)CCC[C@@H](C)[C@H]1CC[C@H]2[C@@H]3CC=C4C[C@@H](O)CC[C@]4(C)[C@H]3CC[C@]12C` [cholesterol, 5-cholesten-3b-ol], for which, under “alcohol”, the solubility in alcohol result was “only sparingly when cold, but more readily after heating”. The “solubility in ether, benzene and petroleum ether” value (ether, benzene and petroleum ether) is given as “soluble”. Moreover, the solubility in water result (water) is “virtually insoluble”.
